Biological target: T1, Human mu opioid (Homo sapiens, UniProt P35372)
T1 construct: host or cells: CHO cell membranes
Assay: [35S]GTPγS binding assay in human mu opioid-CHO cell membranes
Format: biochemical
Description: [^35S]GTPγS Binding Assay in Human mu opioid-CHO Cell Membranes
Human mu-CHO cell membranes were purchased from Receptor Biology, Inc. (Baltimore, Md.). About 10 mg/ml of membrane protein was suspended in 10 mM TRIS-HCl, pH 7.2, 2 mM EDTA, 10% sucrose.
Membranes were maintained at 4-8° C. 1 ml of membranes was added into 15 ml cold assay buffer, containing 50 mM HEPES, pH 7.6, 5 mM MgCl2, 100 mM NaCl, 1 mM DTT and 1 mM EDTA. The membrane suspension was homogenized with a Polytron 2 times and centrifuged at 3000 rpm for 10 min. The supernatant was then centrifuged at 18,000 rpm for 20 min. The pellet was resuspended in 10 ml assay buffer with a Polytron.
The pellet membranes (20 μg/ml) were preincubated with Scintillation Proximity Assay beads (SPA, 10 mg/ml) at 25° C. for 45 min in the assay buffer. The SPA beads (5 mg/ml) coupled with membranes (10 μg/ml) were then incubated with 0.5 nM [^35S]GTPγS in the same HEPES buffer containing 50 μM GDP in total volume of 200 μl. A range of concentrations of receptor agonists were used to stimulate [^35S]GTPγS binding. The basal binding was tested in the absence of agonist and non-specific binding was tested in the presence of 10 μM unlabeled GTPγS. Radioactivity was quantified on a Packard TopCount.
Data were Calculated as Follows: % of basal=(stimulated−non-specific)*100/(basal−non specific) % Inhibition=(% Basal of 1 μM DAMGO−% Basal of compound)*100/(% Basal of 1 μM DAMGO−100)
EC50 values were calculated using the Prism program.

T1 sequence (P35372 whole entry): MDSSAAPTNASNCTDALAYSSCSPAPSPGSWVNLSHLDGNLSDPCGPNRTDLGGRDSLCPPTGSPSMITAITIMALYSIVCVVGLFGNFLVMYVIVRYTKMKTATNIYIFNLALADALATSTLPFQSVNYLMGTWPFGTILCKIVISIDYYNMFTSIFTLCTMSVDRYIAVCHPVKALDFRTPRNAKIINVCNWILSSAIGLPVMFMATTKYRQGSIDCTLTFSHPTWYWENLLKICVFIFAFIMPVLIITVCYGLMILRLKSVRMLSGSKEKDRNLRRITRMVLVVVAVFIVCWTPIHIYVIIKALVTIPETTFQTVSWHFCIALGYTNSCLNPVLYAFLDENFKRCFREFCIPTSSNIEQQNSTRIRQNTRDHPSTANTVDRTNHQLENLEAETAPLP

For CN(C)C[C@H]1CCCC[C@]1(O)c1cccc(C(N)=O)c1 (single isomer, unassigned) [Cpd 3], the EC50 was 167 nM and the “Mu opioid GTPγS relative efficacy” value was 75%.

Reference: patent US7745492B2, “Carboxamido opioid compounds” (Janssen Pharmaceutical, priority 2004, dated 2010)
